Legend:
purified hVKORL = biological target: T1, purified hVKORL (Homo sapiens, UniProt Q8N0U8); assay: Fluorometric activity assay of purified hVKORL; type: biochemical; conditions: IC50, purified and analyzed in LMNG, GSH, 250 nM enzyme, KO as substrate
T1 sequence (Q8N0U8 1-176): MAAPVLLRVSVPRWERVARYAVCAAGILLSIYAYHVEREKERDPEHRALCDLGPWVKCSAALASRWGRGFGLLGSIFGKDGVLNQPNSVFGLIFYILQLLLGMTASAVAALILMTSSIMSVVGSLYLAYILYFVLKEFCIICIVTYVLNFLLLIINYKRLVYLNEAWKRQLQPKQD

[1] = biological target: T2, Takifugu rubripes VKOR-like (TrVKORL) (Takifugu rubripes, UniProt Q6TEK8); assay: Cell-based activity assay
T2 sequence (Q6TEK8 1-175): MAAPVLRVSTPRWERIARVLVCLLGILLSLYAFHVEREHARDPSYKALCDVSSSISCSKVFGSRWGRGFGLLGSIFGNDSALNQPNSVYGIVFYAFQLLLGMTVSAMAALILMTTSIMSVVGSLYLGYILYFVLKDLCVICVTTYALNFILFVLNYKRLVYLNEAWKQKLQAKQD

[2] = biological target: purified complex of hVKOR and warfarin (Homo sapiens, UniProt Q9BQB6); conditions: DTT as reductant
purified complex of hVKOR and warfarin, sequence (Q9BQB6 whole entry, one chain of several): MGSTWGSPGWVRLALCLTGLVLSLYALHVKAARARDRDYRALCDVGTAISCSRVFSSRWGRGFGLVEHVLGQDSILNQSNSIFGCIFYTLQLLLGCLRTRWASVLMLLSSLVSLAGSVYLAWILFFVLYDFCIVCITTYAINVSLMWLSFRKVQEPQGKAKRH

hVKORL = biological target: T3, hVKORL (Homo sapiens, UniProt Q8N0U8); assay: Cell-based activity assay
T3 sequence (Q8N0U8 1-176): T1 sequence (Q8N0U8 1-176)

purified TrVKORL = biological target: T4, purified TrVKORL (Takifugu rubripes, UniProt Q6TEK8); assay: Fluorometric activity assay of purified TrVKORL; type: biochemical
T4 sequence (Q6TEK8 1-175): T2 sequence (Q6TEK8 1-175)

Structure (SMILES) | IC50 (purified hVKORL) [nM] | IC50 [1] [nM] | warfarin inhibition (in words) [2] | IC50 (hVKORL) [nM] | IC50 (purified TrVKORL; IC50 of warfarin, in presence of GSH, enzyme concentration 500 nM, KO or K) [nM] | Ki (purified TrVKORL; Ki^app estimated from the Morrison equation, GSH, K as substrate, low enzyme concentration) [nM] | IC50 (purified TrVKORL; apparent IC50, GSH as reductant, 500 nM TrVKORL, K as substrate) [nM] | IC50 (purified TrVKORL; apparent IC50, GSH as reductant, 500 nM TrVKORL, KO as substrate) [nM] | IC50 (purified TrVKORL; warfarin IC50, DTT as reductant, 500 nM enzyme, K as substrate) [nM] | IC50 (purified TrVKORL; warfarin IC50, DTT as reductant, 500 nM enzyme, KO as substrate) [nM] | decrease of KM with GSH reduction compared to DTT reduction (purified TrVKORL; TrVKORL, KO as substrate) [fold]
CC(=O)CC(c1ccccc1)c1c(O)c2ccccc2oc1=O (centres unmarked) [warfarin] | 120 | 97 | poorly inhibited | 238 | 250 to 260 | 29 | ~250 | ~260 | 3800 | 4700 | 
CC(=CCC12OC1(C)C(=O)c1ccccc1C2=O)CCCC(C)CCCC(C)CCCC(C)C (centres unmarked) [KO, vitamin K epoxide] |  |  |  |  |  |  |  |  |  |  | 3.4

Reference: article PMC7484342 (Journal of molecular biology, 2020)
